Measured values reported in US20170299579A1, “VITELLINE MEMBRANE AS A MODEL OF THE BLOOD BRAIN BARRIER” (priority 2016, published 2017).
Where two headings read alike, the source gives them in different places.

What was measured:
[1] = Permeability of vitelline membrane of decalcified quail eggs (agent reaching the yolk), model of the human blood brain barrier
[2] = Spectrophotometric absorbance of albumen of decalcified quail eggs after incubation with agent; assay type: in vitro ADME
Protocol: (§1) An Ultrospect III spectrophotometer (Pharmacia, Cambridge, England) was recently calibrated by Spectrofuge Corporation of North Carolina, Inc. (Durham, N.C.). Blank quartz cuvettes were selected with the smallest deviation in absorbance. Standard solutions of 2.6×10^−3M acetaminophen and 4.4×10^−3 2-cholorprocaine were prepared. Approximate peak ultraviolet wavelengths were determined with the standard solutions in methanol and PBS. Fine adjustment of the optimum wavelength was performed by retrofit of Beer's law plots of the standards and dilutions. Optimum absorbance wavelengths for acetaminophen and 2-chloroprocaine were 300 nm 329 nm, respectively. Optimum absorbance wavelengths for acetaminophen and 2-choroprocaine dissolve in PBS were 319 nm and 340, respectively. (Table 3)
(§2) The decalcified eggs were soaked in solutions for 2 or 12 hours and then placed in a home freezer prior to analysis. The quail eggs were opened with a razor knife and the denatured albumen and yolk were separated. In most samples the vitelline membrane could be easily separated from the yolk. Samples of the denatured albumen and yolk were dissolved in 5 ml of methanol or PBS and centrifuged at 2700 rpm for 5 minutes. The supernatants were then clarified through a 0.2 micrometer filter (MILLEX-FG, Merck Millipore, Ltd). Clarification of the PBS samples was more difficult than the methanol samples. The clear filtrate was placed in quartz cuvettes. Any air bubbles were eliminated and the samples were analyzed in the spectrophotometer. (Tables 4&5)

[3] = Spectrophotometric absorbance of yolk of decalcified quail eggs after incubation with agent; assay type: in vitro ADME
Protocol: as §1, §2

[4] = not told
[5] = not told; remark: listed apart in the source
[6] = in PBS, 4.4 × 10^−2 m/l, 340 nm, 12 hours
[7] = in methanol, 4.4 × 10^−2 m/L, 329 nm, 2 hours
[8] = in methanol, 4.4 × 10^−2 m/L, 329 nm, 12 hours

Row | Permeability (outer and inner membrane) [4] | Permeability (vitelline membrane) [5] | Structure (SMILES) | other results
1 |  |  | CCN(CC)CCOC(=O)c1ccc(N)cc1Cl [2-Chloroprocaine] | Permeability (vitelline membrane) ([1]; agent in PBS, 2-Chloroprocaine 4 × 10^−2 M, Acetaminophen 2.6 × 10^−1 M, incubation time 12 hours): +; Permeability (vitelline membrane) ([1]; agent in methanol, 2-Chloroprocaine 4 × 10−2 M, Acetaminophen 2.6 × 10^−1 M, incubation time 2 & 12 hours): +; Crossing of the vitelline membrane ([1]; spectroscopic analysis): crossed the vitelline membrane; Albumen (abs) [2, 6]: 0.48 abs; Albumen (abs) [2, 7]: 1.86 abs; Albumen (abs) [2, 8]: 2.52 abs; Yolk (abs) [3, 6]: 1.04 abs; Yolk (abs) [3, 7]: 1.37 abs; Yolk (abs) [3, 8]: 1.71 abs
2 | + | + | CC(=O)Nc1ccc(O)cc1 [Acetaminophen] | Crossing of the vitelline membrane [5]: crossed the vitelline membrane; Albumen (abs) ([2]; quail, 2 h): 2.85 abs; Yolk (abs) ([3]; quail, 2 h): 2.40 abs
3 | + | + | CCO [Ethanol] | Crossing of the vitelline membrane [5]: crossed the vitelline membrane
4 | + | − | O=C1OC2(c3ccc(O)cc3Oc3cc(O)ccc32)c2ccccc21 [Fluorescein] | 
5 |  |  | CN(C)c1ccc(C(=C2C=CC(=[N+](C)C)C=C2)c2ccccc2)cc1 [Malachite green] | Permeability (vitelline membrane) ([1]; 0.01M, incubation time 2 hours): −
6 | + | − | CN(C)c1ccc(/N=N/c2ccccc2C(=O)O)cc1 [Methyl red] | 
7 |  |  | [K+].[K+].[O]=[Cr](=[O])([O-])[O][Cr](=[O])(=[O])[O-] [Potassium dichromate] | Permeability (vitelline membrane) ([1]; 0.01M, incubation time 2 hours): −
8 | + | − | C=C[C@H]1C[N@@]2CC[C@H]1C[C@H]2[C@H](O)c1ccnc2ccc(OC)cc12 [Quinine] | 

Row | Structure (SMILES) | Permeability (outer and inner membrane) [4] | Permeability (vitelline membrane) [5] | other results
9 | Cc1cc(C2(c3ccc(O)c(C)c3)OS(=O)(=O)c3ccccc32)ccc1O [Creosol red] | + | − | 
10 | CCOCC [Ether, diethyl ether] | + |  | 
11 | CCN(Cc1cccc(S(=O)(=O)[O-])c1)c1ccc(C(=C2C=CC(=[N+](CC)Cc3cccc(S(=O)(=O)[O-])c3)C=C2)c2ccccc2S(=O)(=O)[O-])cc1.[Na+].[Na+] [FD&C Blue #1] | + | − | 
